The values that follow come from patent publication US6361815B1, “Products comprising trihydroxystilbenes and derivatives thereof and methods for their manufacture and use” (Pure World Botanicals, Inc., priority 1998, dated 2002).

Where a name gives a salt, the structure may show the parent alone.

One test deals with PC-3. The test can be described thus: MTT assay, 6-cell line test, prostate PC-3. The settings on record: PC-3 cells. The test is classed as cell-based, human. (In general: Tetrazolium dyes change colour on reduction, which living cells bring about.)
The next test concerns MCF-7. The test can be described thus: MTT assay, 6-cell line test, breast MCF-7. The format is cell-based, human. The settings on record: MCF-7 cells.
Another test relates to PACA-2. Description: MTT assay, 6-cell line test, pancreatic PACA-2. The format is cell-based, human. Conditions: PACA-2 cells.
The subject of another test is A-478. Description: MTT assay, 6-cell line test, kidney A-478. The test is classed as cell-based, human. Conditions: A-478 cells.
The subject of a further test is A-549. The test can be described thus: MTT assay, 6-cell line test, lung A-549. The test is classed as cell-based, human. Conditions: A-549 cells.
A further test concerns HT-29. Description: MTT assay, 6-cell line test, colon HT-29. The format is cell-based, human. Conditions: HT-29 cells.
Test [1] has as its system carrageenan-induced pedal edema. The settings on record: rats, cited from earlier work.
Test [2] concerns DMBA-induced mammary tumors. Description: DMBA-induced mammary carcinogenesis in rats. Conditions: for Rat with Tumors, percentage in parentheses (reduction versus Control Diet + DMBA, not explained) / Tumors Per Rat, percentage in parentheses (reduction versus Control Diet + DMBA, not explained): Sulforaphane 50 mg/kg by gavage + DMBA; for Rat with Tumors (%) / Tumors Per Rat: Sulforaphane 50 mg/kg by gavage once a day, days 46-51 of age, + DMBA. The format is in vivo, Female Sprague-Dawley rats. How it is done: Sulforaphane was orally administered by gavage (50 mg / kg body weight in 0.1 ml corn oil) to rats once a day at 46th, 47th, 48th, 49th, 50th and 51st days of their age. […] Palpable mammary tumors were counted every week after DMBA administration.

Procedure for A-478: (§1) Cells were planted in 96 well flat bottom plates with low evaporation lids. Three cell lines per plate were seeded in 0.2 ml medium per well. Each cell line was planted at the optimum concentration for its particular growth rate: H-29 and A-549, 5000 c/ml, MCF-7, 15000 c/well, KB and similar cells, 2500 c/ml, P388 and similar cells, 15000 c/ml. Products were tested at various dilutions (at least ten) to determine the ED 50.
Procedure for A-549: as §1
Procedure for HT-29: as §1
Procedure for MCF-7: as §1
Procedure for PACA-2: as §1
Procedure for PC-3: as §1

On to `OC[C@H]1O[C@@H](Oc2cc(O)cc(/C=C/c3ccc(O)cc3)c2)[C@H](O)[C@@H](O)[C@@H]1O` (relative stereo) [Fifth Product, 90% Piceid, 3,4′5-trans-trihydroxystilbene-3-β-mono-D-glucoside], for which, in the test on PC-3, the “Prostrate PC-3 ED 50” value came to 80.58 µg/mL. The “Breast MCF-7 ED 50” value in the test on MCF-7 was 100 µg/mL. For the same compound, the “Pancreatic PACA-2 ED 50” value with PACA-2 came to 40.98 µg/mL. The “Kidney A-478 ED 50” value in the test with A-478 was determined as 34.95 µg/mL. In addition, the “Lung A-549 ED 50” value in the test with A-549 was 35.77 µg/mL. In the test on HT-29, the “Colon HT-29 ED 50” value came to 79.20 µg/mL.

Take `Oc1ccc(C=Cc2cc(O)cc(O)c2)cc1` [resveratrol, 3,4′,5-trihydroxystilbene]: in test [1] (acute phase (3 to 24 hours)), the “Pedal edema, acute phase” value was “significantly reduced pedal edema”. Besides, the “Pedal edema, chronic phase” value in test [1] (chronic phase (24 to 144 hours)) was “significantly reduced pedal edema”. The “Edema-suppressing activity compared with reference drugs” value in test [1] (versus phenylbutazone and indomethacin) is “greater than that of phenylbutazone and similar to that of indomethacin”.

`COc1cccc2c1C(=O)c1c(O)c3c(c(O)c1C2=O)C[C@@](O)(C(=O)CO)C[C@@H]3O[C@H]1C[C@H](N)[C@H](O)[C@H](C)O1` [Doxorubicin HCL]: the “Prostrate PC-3 ED 50” value with PC-3 came to 0.0281 µg/mL. For the same compound, the “Breast MCF-7 ED 50” value with MCF-7 stood at 0.107 µg/mL. Further, the “Pancreatic PACA-2 ED 50” value in the test on PACA-2 amounted to 0.00522 µg/mL. Also, the “Kidney A-478 ED 50” value in the test on A-478 worked out at 0.00359 µg/mL. In addition, the “Lung A-549 ED 50” value in the test with A-549 came to 0.00316 µg/mL. Further, the “Colon HT-29 ED 50” value with HT-29 was found to be 0.022 µg/mL.

With `C[S+]([O-])CCCCN=C=S` (stereo not drawn) [Sulforaphane], in test [2] (9 weeks after DMBA), the “Rat with Tumors, percentage in parentheses (reduction versus Control Diet + DMBA, not explained)” value is on record as “(100%)”; the “Tumors Per Rat, percentage in parentheses (reduction versus Control Diet + DMBA, not explained)” value is given as “(100%)”; the “Rat with Tumors (%)” value is 0%; the “Tumors Per Rat” value amounted to 0. Besides, in test [2] (14 weeks after DMBA), the “Rat with Tumors, percentage in parentheses (reduction versus Control Diet + DMBA, not explained)” value is given as “(32%)”; the “Tumors Per Rat, percentage in parentheses (reduction versus Control Diet + DMBA, not explained)” value is “(43%)”; the “Rat with Tumors (%)” value amounted to 13%; the “Tumors Per Rat” value turned out to be 0.13 ± 0.08. Further, in test [2] (22 weeks after DMBA), the “Rat with Tumors, percentage in parentheses (reduction versus Control Diet + DMBA, not explained)” value is “(38%)”; the “Tumors Per Rat, percentage in parentheses (reduction versus Control Diet + DMBA, not explained)” value is recorded as “(10%)”; the “Rat with Tumors (%)” value is on record as 31%; the “Tumors Per Rat” value worked out at 0.36 ± 0.33.

For the compound `Oc1ccc(/C=C/c2cc(O)cc(O)c2)cc1` [3,4′,5-trihydroxy-trans-stilbene], the “Prostrate PC-3 ED 50” value in the test with PC-3 is 100 µg/mL. Besides, the “Breast MCF-7 ED 50” value in the test on MCF-7 amounted to 4.23 µg/mL. Besides, the “Pancreatic PACA-2 ED 50” value with PACA-2 stood at 3.55 µg/mL. Further, the “Kidney A-478 ED 50” value with A-478 worked out at 0.74 µg/mL. Also, in the test on A-549, the “Lung A-549 ED 50” value came out at 0.326 µg/mL. Also, the “Colon HT-29 ED 50” value with HT-29 is 1.66 µg/mL.
